The subject of test [1] is bri1-6 mutant seedling. The test is described as follows: Growth of mutant seedling defective in brassinosteroid receptor BRI1 (FIG. 4). The class given is in vivo.
Test [2] deals with seedlings treated with an inhibitor of BR synthesis (brassinazole). Nature of the test: Hypocotyl length of seedlings with brassinosteroid synthesis inhibited by brassinazole (FIG. 1, FIG. 3). The class given is in vivo, Arabidopsis. As for the experimental part: Seedlings were treated with an inhibitor of BR synthesis (brassinazole; (BZ)). […] This is not consistent with what is seen for Bikinin, which is a constitutive activator of BR signaling and would be independent of BR synthesis (i.e. treatment with BZ would not result in inhibition of hypocotyl length in the presence of BZ).
In FIG. 1, brassinosteroid production was limited by addition of brassinazole (BZ, which is a chemical inhibitor of brassinosteroid biosynthesis). […] In stark contrast, addition of brassinolide plus mimetic severely curtails this burst in growth because mimetic prevents the full inhibition of BIN2.

Test [3] has as its system Arabidopsis seedlings. Nature of the test: Hypocotyl length / plant height of seedlings treated with brassinosteroid mimetic (FIG. 1, FIG. 2). The class given is in vivo. As to conditions: versus untreated plants. As for the experimental part: (A) Arabidopsis seedlings were grown for 7 days in light in the presence of increasing concentrations of a brassinosteroid mimetic of the disclosure. (B) a photo of seedlings grown at 0 and 20 μM of brassinosteroid mimetic.
The brassinosteroid mimetics of the disclosure were tested and shown to block ethylene response by hyperactivating brassinosteroid signaling. The application of any one of the brassinosteroid mimetics of the disclosure, which are all closely related, results in massive increases in plant size. […] Additionally, reduction of internal concentrations of brassinosteroids by inhibition of brassinosteroid biosynthesis reduces the effects of the mimetic on growth. In FIG. 1, one can see the promotive effects of F1874-0108 (inset), a brassinosteroid mimetic of the disclosure, on plant height, with chemical treated plants being almost 100% taller than untreated plants. Hyperactivation of brassinosteroid signaling represents an effective means to increase plant biomass and increase the capability of plants with regard to disease resistance and other brassinosteroid regulated phenomena.

The structures appear in SMILES notation.

With `O=C(O)CCC(=O)Nc1ccc(Br)cn1` [Bikinin], in test [1], the “activation of BR pathway / hypocotyl growth” value is on record as “promotion of long hypocotyls independent of BR”.

Take `CCOC(=O)CSc1ncnc2c1cnn2-c1ccccc1` [F1874-0108]: the “seedling length versus BZ treated only” value in test [2] (BZ treated, no exogenous brassinolide added) is given as “substantially longer”. Besides, the “plant height, chemical treated plants taller than untreated plants” value in test [3] was approximately 100%.

As to `CC(O)(c1ccccc1)C(Cc1ccc(Cl)cc1)n1cncn1` (centres unmarked) [brassinazole], in test [2] (FIG. 3, BZ alone), the hypocotyl length result is “shortening of the hypocotyls”.

As for `CC(C)[C@H](C)[C@@H](O)[C@H](O)[C@@H](C)[C@H]1CC[C@H]2[C@@H]3COC(=O)[C@H]4C[C@H](O)[C@H](O)C[C@]4(C)[C@H]3CC[C@]12C` [brassinolide], in test [2] (BZ treated, exogenous brassinolide added back), the “increase in length of BZ seedlings” value is recorded as approximately 400%.
